Measured values as given in US8178506B2, “Oligomeric compounds and compositions for use in modulation of small non-coding RNAs” (Regulus Therapeutics Inc., priority 2003, dated 2012).
In the oligonucleotide strings, read from the 5' end, every base follows the letter of its sugar. An asterisk marks phosphorothioate; unmarked linkages are phosphodiester. Other units and linkages are bracketed, terminal groups are in braces. A string of capitals states the bases alone. e = 2'-O-(2-methoxyethyl) (MOE); [5mC] = 5-methylcytosine; d = 2'-deoxy (DNA)

Legend:
Type in all cases: cell-based, human
T47D cells = assay: Cell cycle assay in T47D cells; conditions: 150 nM, 48 hours, relative to untreated control
Procedure: BJ cells were routinely cultured in MEM high glucose with 2 mM L-glutamine and Earle's BSS adjusted to contain 1.5 g/L sodium bicarbonate and supplemented with 10% fetal bovine serum, 0.1 mM non-essential amino acids and 1.0 mM sodium pyruvate (all media and supplements from Invitrogen Life Technologies, Carlsbad, Calif.). B16-F10 cells were routinely cultured in DMEM high glucose (Invitrogen Life Technologies, Carlsbad, Calif.) supplemented with 10% fetal bovine serum (Invitrogen Life Technologies, Carlsbad, Calif.). T47D cells were cultured in DMEM High glucose media (Invitrogen Life Technologies, Carlsbad, Calif.) supplemented with 10% fetal bovine serum. […] Cells were plated on collagen-coated 24-well plates (Falcon-Primaria #3047, BD Biosciences, Bedford, Mass.) at approximately 50,000 cells per well and allowed to attach to wells overnight.
(§1) In further studies, additional cell lines were treated with oligomeric compounds targeted against miRNAs to assess the effects of each oligomeric compound on cell cycling. BJ, B16, T47D, and HeLa cells were cultured and transfected as described above. […] T47Dp53 cells are T47D cells that have been transfected with and selected for maintenance of a plasmid that expresses a wildtype copy of the p53 gene (for example, pCMV-p53; Clontech, Palo Alto, Calif.), using standard laboratory procedures. BJ cells were treated with 200 nM of each oligomeric compound, and T47D, T47Dp53, HeLa, and B16 cells were treated with 150 nM of each oligomeric compound. The human foreskin fibroblast BJ cell line represents a non-cancer cell line, while HeLa, T47D, T47Dp53 cells and the mouse melanoma cell line B16-F10 represent cancerous cell lines. For comparison, oligomeric compounds ISIS 183891 (SEQ ID NO: 847) and ISIS 285717 ([…]; herein incorporated as SEQ ID NO: 857), both targeting the kinesin-like 1/Eg5 mRNA, involved in cell cycling, were used as positive controls. The random-mer ISIS 29848 was used as a negative control. Additionally, the oligomeric compounds ISIS Number 25690 ([…]; herein incorporated as SEQ ID NO: 858) and ISIS Number 25691 ([…]; herein incorporated as SEQ ID NO: 859), targeted to nucleotides 3051-3070 and 3085-3104, respectively, of the mRNA encoding the Drosha RNase III (GenBank Accession NM_013235.2, incorporated herein as SEQ ID NO: 860) were also tested. ISIS Number 25690 and ISIS Number 25691 are 5-10-52′-MOE gapmer compounds, 20 nucleotides in length, with phosphorothioate internucleoside linkages throughout the oligomeric compound. All cytidine residues are 5-methylcytidines. Transfections were performed using the methods described herein. Cells were prepared for flow cytometry 48-hours after oligonucleotide treatment. Results of these studies are shown in Table 35, where data are expressed as percentage of cells in each phase relative to the untreated control cells in that phase.

T47Dp53 cells = assay: Cell cycle assay in T47Dp53 cells; conditions: 150 nM, 48 hours, relative to untreated control
Procedure: as §1

HeLa cells = assay: Cell cycle assay in HeLa cells; conditions: HeLa cells
[1] = 150 nM, 48 hours, relative to untreated control
[2] = 150 nM oligomeric compound, 24 hours, relative to untreated control (UTC = 100)
[3] = 150 nM oligomeric compound, 48 hours after treatment, relative to untreated control (UTC=100)

For “25690 (antisense eA*eT*e[5mC]*e[5mC]*e[5mC]*dT*dT*dT*d[5mC]*dT*dT*d[5mC]*d[5mC]*dG*d[5mC]*eA*eT*eG*eT*eG) [compound 25690]”, the “% cells in cell cycle phase G1” value (T47D cells) was 97%, the “% cells in cell cycle phase G2/M” value (T47D cells) was 113% and the “% cells in cell cycle phase S” value (T47D cells) was 80%. For the same substance, the “% cells in cell cycle phase aneuploid” value (T47D cells) was 140%, the “% cells in cell cycle phase subG1” value (T47D cells) was 97% and the “% cells in cell cycle phase G1” value (T47Dp53 cells) was 97%. The “% cells in cell cycle phase G2/M” value (T47Dp53 cells) was 114%, the “% cells in cell cycle phase S” value (T47Dp53 cells) was 108% and the “% cells in cell cycle phase aneuploid” value (T47Dp53 cells) was 144%. For the same substance, the “% cells in cell cycle phase subG1” value (T47Dp53 cells) was 193%, the “% cells in cell cycle phase G1” value (HeLa cells; [1]) was 119% and the “% cells in cell cycle phase G2/M” value (HeLa cells; [1]) was 87%. For the same substance, the “% cells in cell cycle phase S” value (HeLa cells; [1]) was 89%, the “% cells in cell cycle phase aneuploid” value (HeLa cells; [1]) was 140% and the “% cells in cell cycle phase subG1” value (HeLa cells; [1]) was 64%.

For “328687 (eG*e[5mC]*eT*eT*e[5mC]*d[5mC]*d[5mC]*dA*dG*d[5mC]*dG*dG*d[5mC]*d[5mC]*dT*eA*eT*eA*eG*eT; antisense) [compound 328687]”, the “% cells in cell cycle phase G1” value (T47D cells) was 101%, the “% cells in cell cycle phase G2/M” value (T47D cells) was 115% and the “% cells in cell cycle phase S” value (T47D cells) was 92%. The “% cells in cell cycle phase aneuploid” value (T47D cells) was 169%, the “% cells in cell cycle phase subG1” value (T47D cells) was 142% and the “% cells aneuploid” value (HeLa cells; [2]) was 149%. The “% cells in cell cycle phase G1” value (HeLa cells; [2]) was 80%, the “% cells in cell cycle phase G2/M” value (HeLa cells; [2]) was 131% and the “% cells in cell cycle phase S” value (HeLa cells; [2]) was 98%. The “% cells in cell cycle phase subG1” value (HeLa cells; [2]) was 231%, the “% cells in cell cycle phase: G1” value (HeLa cells; [3]) was 55% and the “% cells in cell cycle phase: G2/M” value (HeLa cells; [3]) was 131%. The “% cells in cell cycle phase: S” value (HeLa cells; [3]) was 174%, the “% cells in cell cycle phase: aneuploid” value (HeLa cells; [3]) was 171% and the “% cells in cell cycle phase: subG1” value (HeLa cells; [3]) was 1119%.
